Data published in article PMC5218480 (PLoS ONE, 2017).

Test system: MV-4-11 cells
Assay: Gene expression microarray analysis (Affymetrix PrimeView) and GSEA
Assay type: cell-based, human
Set-up: RFU PODN (11730768_x_at) / Fold change /veh PODN (11730768_x_at) / RFU LINC00158 (11744669_a_at) / Fold change /veh LINC00158 (11744669_a_at) / RFU DUSP10 (11751237_a_at) / Fold change /veh DUSP10 (11751237_a_at) / RFU ID3 (11757404_x_at) / Fold change /veh ID3 (11757404_x_at) / RFU PLEKHG5 (11737974_s_at) / Fold change /veh PLEKHG5 (11737974_s_at) / RFU LRRC4B (11730491_at) / Fold change /veh LRRC4B (11730491_at) / RFU GIMAP4 (11747438_a_at) / Fold change /veh GIMAP4 (11747438_a_at) / RFU KRT8 (11758183_x_at) / Fold change /veh KRT8 (11758183_x_at) / RFU CNN1 (11734310_a_at) / Fold change /veh CNN1 (11734310_a_at) / RFU VPS37D (11726825_at) / Fold change /veh VPS37D (11726825_at) / RFU C10orf10 (11716522_x_at) / Fold change /veh C10orf10 (11716522_x_at) / RFU KIR2DL2 /// KIR2DL4 /// KIR2DL5A /// KIR2DL5B /// KIR2DS1 /// KIR2DS2 /// KIR2DS3 /// KIR2DS4 /// KIR3DL3 /// KIR3DL3 /// KIR3DS1 (11738374_at) / Fold change /veh KIR2DL2 /// KIR2DL4 /// KIR2DL5A /// KIR2DL5B /// KIR2DS1 /// KIR2DS2 /// KIR2DS3 /// KIR2DS4 /// KIR3DL3 /// KIR3DL3 /// KIR3DS1 (11738374_at) / RFU C1QL1 (11718748_at) / Fold change /veh C1QL1 (11718748_at) / RFU TMPRSS4 (11747572_a_at) / Fold change /veh TMPRSS4 (11747572_a_at) / RFU HAMP (11756126_x_at) / Fold change /veh HAMP (11756126_x_at) / RFU RNFT2 (11725882_a_at) / Fold change /veh RNFT2 (11725882_a_at) / RFU NR4A2 (11747474_a_at) / Fold change /veh NR4A2 (11747474_a_at) / RFU ABCC12 (11746883_a_at) / Fold change /veh ABCC12 (11746883_a_at) / RFU TMEM136 (11760407_x_at) / Fold change /veh TMEM136 (11760407_x_at) / RFU CLDN22 /// WWC2 (11732394_at) / Fold change /veh CLDN22 /// WWC2 (11732394_at) / RFU HLA-DPB1 (11760878_x_at) / Fold change /veh HLA-DPB1 (11760878_x_at) / RFU SPINT1 (11716480_a_at) / Fold change /veh SPINT1 (11716480_a_at) / RFU GAP43 (11754022_s_at) / Fold change /veh GAP43 (11754022_s_at) / RFU A4GNT (11735810_at) / Fold change /veh A4GNT (11735810_at) / RFU PRB3 (11715151_x_at) / Fold change /veh PRB3 (11715151_x_at) / RFU TUBB4B (11761932_at) / Fold change /veh TUBB4B (11761932_at) / RFU CAPN14 (11732068_a_at) / Fold change /veh CAPN14 (11732068_a_at) / RFU TMCC2 (11721928_a_at) / Fold change /veh TMCC2 (11721928_a_at) / RFU IRGQ (11745062_a_at) / Fold change /veh IRGQ (11745062_a_at) / RFU FAM174B (11720279_a_at) / Fold change /veh FAM174B (11720279_a_at) / RFU TMPRSS4 (11748680_a_at) / Fold change /veh TMPRSS4 (11748680_a_at) / RFU FAM212B (11763350_a_at) / Fold change /veh FAM212B (11763350_a_at) / RFU PLEKHG5 (11743358_a_at) / Fold change /veh PLEKHG5 (11743358_a_at) / RFU ZSCAN30 (11745921_a_at) / Fold change /veh ZSCAN30 (11745921_a_at) / RFU CMKLR1 (11741424_a_at) / Fold change /veh CMKLR1 (11741424_a_at) / RFU LOC101060620 /// MAPK8IP1 (11723275_at) / Fold change /veh LOC101060620 /// MAPK8IP1 (11723275_at) / RFU SPTSSB (11747773_x_at) / Fold change /veh SPTSSB (11747773_x_at) / RFU PRSS12 (11739890_at) / Fold change /veh PRSS12 (11739890_at) / RFU BIN1 (11741810_x_at) / Fold change /veh BIN1 (11741810_x_at) / RFU WNT11 (11732464_a_at) / Fold change /veh WNT11 (11732464_a_at) / RFU C10orf10 (11716521_a_at) / Fold change /veh C10orf10 (11716521_a_at) / RFU C5orf56 (11738089_at) / Fold change /veh C5orf56 (11738089_at) / RFU CYB561 (11721691_x_at) / Fold change /veh CYB561 (11721691_x_at) / RFU ANKRD19P (11752326_a_at) / Fold change /veh ANKRD19P (11752326_a_at) / RFU OR2T12 /// OR2T33 /// OR2T8 (11738714_s_at) / Fold change /veh OR2T12 /// OR2T33 /// OR2T8 (11738714_s_at) / RFU VCAN (11748164_a_at) / Fold change /veh VCAN (11748164_a_at) / RFU JSRP1 (11732532_at) / Fold change /veh JSRP1 (11732532_at) / RFU KRTAP10-11 (11738290_x_at) / Fold change /veh KRTAP10-11 (11738290_x_at) / RFU MYO3A (11730013_a_at) / Fold change /veh MYO3A (11730013_a_at) / RFU EBF3 (11725865_a_at) / Fold change /veh EBF3 (11725865_a_at) / RFU CAMK2N1 (11719241_x_at) / Fold change /veh CAMK2N1 (11719241_x_at) / RFU C5orf56 (11738088_a_at) / Fold change /veh C5orf56 (11738088_a_at) / RFU OLFML3 (11715873_a_at) / Fold change /veh OLFML3 (11715873_a_at) / RFU LOC100653217 /// NTM (11731650_a_at) / Fold change /veh LOC100653217 /// NTM (11731650_a_at) / RFU MAPK11 (11762145_a_at) / Fold change /veh MAPK11 (11762145_a_at) / RFU FIZ1 (11724087_x_at) / Fold change /veh FIZ1 (11724087_x_at) / RFU OASL (11726364_x_at) / Fold change /veh OASL (11726364_x_at) / RFU SOX15 (11748057_x_at) / Fold change /veh SOX15 (11748057_x_at) / RFU CD79A (11719716_a_at) / Fold change /veh CD79A (11719716_a_at) / RFU HIST1H1D (11736915_at) / Fold change /veh HIST1H1D (11736915_at) / RFU CASKIN2 (11723855_a_at) / Fold change /veh CASKIN2 (11723855_a_at) / RFU LOC730098 (11760151_x_at) / Fold change /veh LOC730098 (11760151_x_at) / RFU OR4N2 (11742367_at) / Fold change /veh OR4N2 (11742367_at) / RFU PRRT2 (11749266_a_at) / Fold change /veh PRRT2 (11749266_a_at) / RFU SNX32 (11753110_a_at) / Fold change /veh SNX32 (11753110_a_at) / RFU CDHR5 (11726645_a_at) / Fold change /veh CDHR5 (11726645_a_at) / RFU RCAN1 (11760418_a_at) / Fold change /veh RCAN1 (11760418_a_at) / RFU FAM167A (11723789_a_at) / Fold change /veh FAM167A (11723789_a_at) / RFU FAM26E (11764081_at) / Fold change /veh FAM26E (11764081_at) / RFU ISYNA1 (11749810_s_at) / Fold change /veh ISYNA1 (11749810_s_at) / RFU ACY1 (11761880_at) / Fold change /veh ACY1 (11761880_at) / RFU 11764098_at / Fold change /veh 11764098_at / RFU SAMD14 (11745864_x_at) / Fold change /veh SAMD14 (11745864_x_at) / RFU NPB (11741838_a_at) / Fold change /veh NPB (11741838_a_at) / RFU TMPRSS6 (11731388_a_at) / Fold change /veh TMPRSS6 (11731388_a_at) / RFU KRTAP10-2 (11738614_at) / Fold change /veh KRTAP10-2 (11738614_at) / RFU ARHGAP8 /// PRR5-ARHGAP8 (11727945_x_at) / Fold change /veh ARHGAP8 /// PRR5-ARHGAP8 (11727945_x_at) / RFU KRTAP5-7 /// NADSYN1 (11734609_at) / Fold change /veh KRTAP5-7 /// NADSYN1 (11734609_at) / RFU RASL12 (11751679_a_at) / Fold change /veh RASL12 (11751679_a_at) / RFU CDKN2B (11736163_a_at) / Fold change /veh CDKN2B (11736163_a_at) / RFU PRF1 (11729649_at) / Fold change /veh PRF1 (11729649_at) / RFU, ZNF638 /// ZNF638-IT1 / Fold change vs veh, ZNF638 /// ZNF638-IT1 / RFU, PANK3 / Fold change vs veh, PANK3 / RFU, SH3YL1 / Fold change vs veh, SH3YL1 / RFU, ZEB2 / Fold change vs veh, ZEB2 / RFU, NRIP1 / Fold change vs veh, NRIP1 / RFU, PTTG1IP / Fold change vs veh, PTTG1IP / RFU, CAPN2 / Fold change vs veh, CAPN2 / RFU, MED14 / Fold change vs veh, MED14 / RFU, SNORA58 / Fold change vs veh, SNORA58 / RFU, C1orf63 / Fold change vs veh, C1orf63 / RFU, LRRFIP1 / Fold change vs veh, LRRFIP1 / RFU, NDUFAF7 / Fold change vs veh, NDUFAF7 / RFU, SLC12A2 / Fold change vs veh, SLC12A2 / RFU, IBTK / Fold change vs veh, IBTK / RFU, ESF1 / Fold change vs veh, ESF1 / Fold change vs veh, TMEM50B / RFU, TAOK1 / Fold change vs veh, TAOK1 / RFU, ACBD3 / Fold change vs veh, ACBD3 / RFU, TMA16 / Fold change vs veh, TMA16 / RFU, RWDD3 / Fold change vs veh, RWDD3 / RFU, BCAT1 / Fold change vs veh, BCAT1 / RFU, EDEM3 / Fold change vs veh, EDEM3 / RFU, TMEM33 / Fold change vs veh, TMEM33 / RFU, WDR75 / Fold change vs veh, WDR75 / RFU, AHCTF1 / Fold change vs veh, AHCTF1 / RFU, TFRC / Fold change vs veh, TFRC / RFU, ZDHHC17 / Fold change vs veh, ZDHHC17 / RFU, NOM1 / Fold change vs veh, NOM1 / RFU, ARL8B / Fold change vs veh, ARL8B / RFU, ZBTB11 / Fold change vs veh, ZBTB11 / RFU, TAMM41 / Fold change vs veh, TAMM41 / RFU, KIAA1704 /// LOC100996395 / Fold change vs veh, KIAA1704 /// LOC100996395 / RFU, ING1 / Fold change vs veh, ING1 / RFU, TRMT61B / Fold change vs veh, TRMT61B / RFU, FUBP3 / Fold change vs veh, FUBP3 / RFU, TP53 / Fold change vs veh, TP53 / RFU, TNKS2 / Fold change vs veh, TNKS2 / RFU, ZFP14 / Fold change vs veh, ZFP14 / RFU, ACTR2 / Fold change vs veh, ACTR2 / RFU, PPP3R1 / Fold change vs veh, PPP3R1 / RFU, PIK3R1 / Fold change vs veh, PIK3R1 / RFU, HNRNPA1 / Fold change vs veh, HNRNPA1 / RFU, RNF170 / Fold change vs veh, RNF170 / RFU, ZNF28 / Fold change vs veh, ZNF28 / RFU, RNGTT / Fold change vs veh, RNGTT / RFU, OGT / Fold change vs veh, OGT / RFU, BRD1 / Fold change vs veh, BRD1 / RFU, MARS / Fold change vs veh, MARS / RFU, ZNF655 / Fold change vs veh, ZNF655 / RFU, FAHD1 / Fold change vs veh, FAHD1 / RFU, BDP1 / Fold change vs veh, BDP1 / RFU, LRRCC1 / Fold change vs veh, LRRCC1 / RFU, ARID1A / Fold change vs veh, ARID1A / RFU, ZNF146 / Fold change vs veh, ZNF146 / RFU, ZNF330 / Fold change vs veh, ZNF330 / RFU, GPN3 / Fold change vs veh, GPN3 / RFU, C9orf123 / Fold change vs veh, C9orf123 / RFU, N4BP2L2 / Fold change vs veh, N4BP2L2 / RFU, ARFIP1 / Fold change vs veh, ARFIP1 / RFU, FAM179B / Fold change vs veh, FAM179B / RFU, BCL10 / Fold change vs veh, BCL10 / RFU, UHRF1BP1L / Fold change vs veh, UHRF1BP1L / RFU, BET1 / Fold change vs veh, BET1 / RFU, CNOT2 / Fold change vs veh, CNOT2 / RFU, ZNF268 / Fold change vs veh, ZNF268 / Fold change vs veh, ZNF507 / RFU, DGCR2 / Fold change vs veh, DGCR2 / RFU, WDSUB1 / Fold change vs veh, WDSUB1 / Fold change vs veh, HSP90B1 /// MIR3652 / RFU, ADSS / Fold change vs veh, ADSS / RFU, GK / Fold change vs veh, GK / RFU, ZNF148 / Fold change vs veh, ZNF148 / RFU, TAF9 / Fold change vs veh, TAF9 / RFU, SLC1A5 / Fold change vs veh, SLC1A5 / RFU, SLMO2 / Fold change vs veh, SLMO2 / RFU, ABCC4 / Fold change vs veh, ABCC4 / RFU, LOC101060439 /// RAP1B / Fold change vs veh, LOC101060439 /// RAP1B / RFU, RFX7 / Fold change vs veh, RFX7 / RFU, GTPBP10 / Fold change vs veh, GTPBP10 / RFU, CNEP1R1 / Fold change vs veh, CNEP1R1 / RFU, BIVM-ERCC5 /// ERCC5 / Fold change vs veh, BIVM-ERCC5 /// ERCC5 / RFU, ILF3 / Fold change vs veh, ILF3 / RFU 11762660_at / Fold change /veh 11762660_at / RFU VCAN (11757783_s_at) / Fold change /veh VCAN (11757783_s_at) / RFU DDX43 (11728927_at) / Fold change /veh DDX43 (11728927_at) / RFU KRT8 (11758188_x_at) / Fold change /veh KRT8 (11758188_x_at) / RFU NKD1 (11759106_at) / Fold change /veh NKD1 (11759106_at) / RFU SRD5A1 (11742802_a_at) / Fold change /veh SRD5A1 (11742802_a_at) / RFU TPSAB1 /// TPSB2 (11721975_s_at) / Fold change /veh TPSAB1 /// TPSB2 (11721975_s_at) / RFU GSTM3 (11746129_a_at) / Fold change /veh GSTM3 (11746129_a_at) / RFU IL23R (11737362_x_at) / Fold change /veh IL23R (11737362_x_at) / RFU TMEM51 (11727254_a_at) / Fold change /veh TMEM51 (11727254_a_at) / RFU PIWIL2 (11732686_x_at) / Fold change /veh PIWIL2 (11732686_x_at) / RFU ORM1 (11744905_x_at) / Fold change /veh ORM1 (11744905_x_at) / RFU CCDC152 (11743942_at) / Fold change /veh CCDC152 (11743942_at) / RFU ECM1 (11717891_a_at) / Fold change /veh ECM1 (11717891_a_at) / RFU IL23R (11748794_a_at) / Fold change /veh IL23R (11748794_a_at) / RFU TNFAIP8L3 (11732012_x_at) / Fold change /veh TNFAIP8L3 (11732012_x_at) / RFU MBOAT4 (11741988_at) / Fold change /veh MBOAT4 (11741988_at) / RFU 11764193_at / Fold change /veh 11764193_at / RFU TMEM53 (11763286_at) / Fold change /veh TMEM53 (11763286_at) / RFU MAGEB2 (11727129_at) / Fold change /veh MAGEB2 (11727129_at) / RFU TMEM200A (11744735_a_at) / Fold change /veh TMEM200A (11744735_a_at) / RFU CCDC152 (11751479_a_at) / Fold change /veh CCDC152 (11751479_a_at) / RFU FAM211A (11726209_a_at) / Fold change /veh FAM211A (11726209_a_at) / RFU RGS16 (11746705_a_at) / Fold change /veh RGS16 (11746705_a_at) / RFU VCAN (11755009_s_at) / Fold change /veh VCAN (11755009_s_at) / RFU RHOB (11743442_s_at) / Fold change /veh RHOB (11743442_s_at) / RFU RGS16 (11720943_a_at) / Fold change /veh RGS16 (11720943_a_at) / RFU RGS16 (11720944_at) / Fold change /veh RGS16 (11720944_at) / RFU, VPS4B / Fold change vs veh, VPS4B / RFU, CREB1 / Fold change vs veh, CREB1 / RFU, DNAJC13 / Fold change vs veh, DNAJC13 / RFU, GNAQ / Fold change vs veh, GNAQ / RFU, CDK5R1 / Fold change vs veh, CDK5R1 / RFU, ZRANB3 / Fold change vs veh, ZRANB3 / RFU, CUL4A / Fold change vs veh, CUL4A / RFU, CCNY / Fold change vs veh, CCNY / RFU, UFL1 / Fold change vs veh, UFL1 / RFU, COG3 / Fold change vs veh, COG3 / RFU, DIAPH2 / Fold change vs veh, DIAPH2 / RFU, SKA2 / Fold change vs veh, SKA2 / RFU, AFF3 / Fold change vs veh, AFF3 / RFU, LMF1 / Fold change vs veh, LMF1 / RFU, IPO11 / Fold change vs veh, IPO11 / RFU, DFFB / Fold change vs veh, DFFB / RFU, FOXP1 / Fold change vs veh, FOXP1 / RFU, CARD8 / Fold change vs veh, CARD8 / RFU, STRN3 / Fold change vs veh, STRN3 / RFU, ADK / Fold change vs veh, ADK / RFU, RASSF2 / Fold change vs veh, RASSF2 / RFU, WIPF1 / Fold change vs veh, WIPF1 / RFU, LARP1B / Fold change vs veh, LARP1B / RFU, RASA1 / Fold change vs veh, RASA1 / RFU, RB1 / Fold change vs veh, RB1 / RFU, PPFIA1 / Fold change vs veh, PPFIA1 / RFU, MAT2A / Fold change vs veh, MAT2A / RFU, CCT5 / Fold change vs veh, CCT5 / RFU, WDR92 / Fold change vs veh, WDR92 / RFU, CUX1 / Fold change vs veh, CUX1 / RFU, TTC7A / Fold change vs veh, TTC7A / RFU, TMEM135 / Fold change vs veh, TMEM135 / RFU, DEPTOR / Fold change vs veh, DEPTOR / RFU, CPM / Fold change vs veh, CPM / RFU, DNAJB6 / Fold change vs veh, DNAJB6 / RFU, CACNA2D3 / Fold change vs veh, CACNA2D3 / RFU, DTX4 / Fold change vs veh, DTX4 / RFU, TFCP2 / Fold change vs veh, TFCP2 / RFU, GMCL1 /// GMCL1P1 / Fold change vs veh, GMCL1 /// GMCL1P1 / RFU, AEBP2 / Fold change vs veh, AEBP2 / RFU, SNHG1 /// SNORD22 /// SNORD25 /// SNORD26 /// SNORD27 /// SNORD28 /// SNORD29 /// SNORD31 / Fold change vs veh, SNHG1 /// SNORD22 /// SNORD25 /// SNORD26 /// SNORD27 /// SNORD28 /// SNORD29 /// SNORD31 / Fold change (Aza/veh), C12orf56 (ProbeSet 11735607_a_at) / Fold change (ACY-1035/veh), C12orf56 (ProbeSet 11735607_a_at) / Fold change (Aza/veh), FGFR1OP (ProbeSet 11751329_s_at) / Fold change (ACY-1035/veh), FGFR1OP (ProbeSet 11751329_s_at) / Fold change (Aza/veh), VPS36 (ProbeSet 11739960_a_at) / Fold change (ACY-1035/veh), VPS36 (ProbeSet 11739960_a_at) / RFU SYPL1 (11715823_x_at) / Fold change /veh SYPL1 (11715823_x_at) / RFU IGFBP7 (11715501_s_at) / Fold change /veh IGFBP7 (11715501_s_at) / RFU REEP3 (11722064_at) / Fold change /veh REEP3 (11722064_at) / RFU IGLL1 (11728026_x_at) / Fold change /veh IGLL1 (11728026_x_at): dose or concentration left out as unconfirmed
Settings: MV-4-11 cells, 48 hours

## Nc1ncn([C@@H]2O[C@H](CO)[C@@H](O)[C@H]2O)c(=O)n1 [azacitidine]
  Fold change /veh RGS16 (11720943_a_at): 1.45
